Test results published in patent publication US7358249B2, “Heterocyclic compounds having inhibitory activity against HIV integrase” (Shionogi & Co., Ltd., priority 2002, dated 2008).
Counter-ions that a name gives are not always drawn.

COC(=O)c1cc(CN2C(=O)CCCC2=O)c2cc(Cc3ccc(F)cc3)cnc2c1O
melting point: 154 to 156 °C

COC(=O)c1cc(C(=O)NC2CCNCC2)c2cc(Cc3ccc(F)cc3)cnc2c1O
melting point: 232 to 233 °C

CN(C)NC(=O)c1nc(C#CC2=CCCC2)c2cc(Cc3ccc(F)cc3)cnc2c1O
melting point: 206 to 207 °C

C#CCNC(=O)c1cc(C(=O)OC)c(O)c2ncc(Cc3ccc(F)cc3)cc12
melting point: 192 to 193 °C

COC(=O)c1cc(C(=O)NCCF)c2cc(Cc3ccc(F)cc3)cnc2c1O
melting point: 216 to 217 °C

COC(=O)c1cc(N(C=O)C=O)c2cc(Cc3ccc(F)cc3)cnc2c1O
melting point: 243 to 245 °C

COC(=O)c1cc(C(=O)N(C)CC(=O)N(C)C)c2cc(Cc3ccc(F)cc3)cnc2c1O
melting point: 99 to 100 °C

COC(=O)c1cc(Cc2cc(C(=O)OC)c(O)c3ncc(Cc4ccc(F)cc4)cc23)c2cc(Cc3ccc(F)cc3)cnc2c1O
melting point: 244 to 245 °C

CCN(C=O)c1cc(C(=O)OC)c(O)c2ncc(Cc3ccc(F)cc3)cc12
melting point: 90 to 91 °C

COCCNC(=O)c1cc(C(=O)OC)c2cc(Cc3ccc(F)cc3)cnc2c1O
melting point: 165 to 167 °C

CONC(=O)c1cc(C(=O)OC)c(O)c2ncc(Cc3ccc(F)cc3)cc12
melting point: 200 to 201 °C

O=C1CCc2cc3cc(Cc4ccc(F)cc4)cnc3c(O)c21
melting point: 195 to 197 °C

COC(=O)c1cc(NC(=O)C2CCCCC2)c2cc(Cc3ccc(F)cc3)cnc2c1O
melting point: 250 to 251 °C

CC(=O)N1CCC(OC(=O)c2cc(C(=O)NCCCO)c3cc(Cc4ccc(F)cc4)cnc3c2O)CC1
melting point: 97 to 99 °C

COC(=O)c1cc(NC(=O)C(F)(F)F)c2cc(Cc3ccc(F)cc3)cnc2c1O
melting point: 191 to 192 °C

CCNC(=O)Nc1cc(C(=O)OC)c(O)c2ncc(Cc3ccc(F)cc3)cc12
melting point: 280 to 282 °C

COCCCNC(=O)c1cc(C(=O)OC)c(O)c2ncc(Cc3ccc(F)cc3)cc12
melting point: 166 to 167 °C

COC(=O)c1cc(-c2ccccc2C=O)c2cc(Cc3ccc(F)cc3)cnc2c1O
melting point: 73 to 75 °C

COC(=O)c1cc(C(=O)NN2CCCCC2)c2cc(Cc3ccc(F)cc3)cnc2c1O
melting point: 233 to 234 °C

COC(=O)c1cc(C(=O)NCC(N)=O)c2cc(Cc3ccc(F)cc3)cnc2c1O
melting point: 247 to 248 °C

COC(=O)c1cc(CC(=O)O)c2cc(Cc3ccc(F)cc3)cnc2c1O
melting point: 218 to 220 °C

COCCNC(=O)c1nc(C#CCNS(C)(=O)=O)c2cc(Cc3ccc(F)cc3)cnc2c1O
melting point: 198 °C

COC(=O)c1cc(C(=O)NCCN)c2cc(Cc3ccc(F)cc3)cnc2c1O
melting point: 229 to 230 °C

COC(=O)c1cc(NC(=O)COc2ccccc2)c2cc(Cc3ccc(F)cc3)cnc2c1O
melting point: 172 to 173 °C

COC(=O)c1cc(C(=O)NC2CCN(C(C)=O)CC2)c2cc(Cc3ccc(F)cc3)cnc2c1O
melting point: 214 to 215 °C

CC(=O)N1CCC(OC(=O)c2cc(C(=O)NN(C)C)c3cc(Cc4ccc(F)cc4)cnc3c2O)CC1
melting point: 92 to 93 °C

COC(=O)c1cc(C(=O)NC2CCOCC2)c2cc(Cc3ccc(F)cc3)cnc2c1O
melting point: 246 to 247 °C

COC(=O)c1cc(NC(=O)c2ccnc(C)c2)c2cc(Cc3ccc(F)cc3)cnc2c1O (as salt: salt)
melting point: 229 to 230 °C

COCC(=O)NNC(=O)c1cc(C(=O)OC)c(O)c2ncc(Cc3ccc(F)cc3)cc12
melting point: 181 to 182 °C

CCN(CCOC)C(=O)c1cc(C(=O)OC)c(O)c2ncc(Cc3ccc(F)cc3)cc12
melting point: 90 to 91 °C

COC(=O)c1cc(C(=O)NN2CCOCC2)c2cc(Cc3ccc(F)cc3)cnc2c1O
melting point: > 250 °C

COC(=O)c1cc(C(=O)NNC=O)c2cc(Cc3ccc(F)cc3)cnc2c1O
melting point: 249 to 250 °C

COC(=O)c1cc(C(=O)NNC(=O)c2ccccc2)c2cc(Cc3ccc(F)cc3)cnc2c1O
melting point: 227 to 229 °C

COC(=O)c1cc(C(=O)NNS(C)(=O)=O)c2cc(Cc3ccc(F)cc3)cnc2c1O
melting point: > 250 °C
